Consider 3 molecules from BindingDB's records for doi:10.1021/jm0201417 (University of Southern California, 2002).

Experiment [1] in a line: Inhibitory activity against viral attachment.
Experiment [2] can be described thus: Effective concentration of the compound against viral replication by Reverse transcriptase.

In the case of `O=C(NNC(=O)c1ccccc1S)c1ccccc1S` [2-Mercapto-benzoic acid N'-(2-mercapto-benzoyl)-hydrazide], the IC50 in experiment [1] is more than 100 µM. In experiment [2], this molecule returned an EC50 of 4.3 µM.
For `O=C1NNC(=O)c2ccccc2SSc2ccccc2C(=O)NNC(=O)c2ccccc2SSc2ccccc21` [11,12,13,14,25,26,27,28-octahydrotetrabenzo[c,i,m,s][1,2,11,12,6,7,16,17]tetrathiatetraazacycloicosine-11,14,25,28-tetraone], in experiment [2], the EC50 turned out to be 6 µM.
`O=C(NNC(=O)c1ccccc1SSc1ccccc1C(=O)NNC(=O)c1ccccc1S)c1ccccc1S` [Compound 3] displayed an IC50 in experiment [1] of more than 100 µM. The same molecule came in with an EC50 in experiment [2] of 17.8 µM.

As a reminder, the IC50 is the concentration that gives 50% inhibition. Read a high IC50 as weaker potency. As usually defined, the EC50 is the concentration at which the effect is half-maximal.
